Experiment: in vivo
Design: species or system swine
Conditions: for AUMC / AUMClast / AUCINF / AUC_Exp / AUC∞ extrpl / Lamda_HL / Lamda_Z / λZ / T1/2λZ: both; for Lamda_HL / Lamda_Z / λZ / T1/2λZ: swine
Description: Blood samples for firocoxib determination were collected from the sows and three piglets/litter (two male and one female piglet at each time point) at 0, 2, 4, 6, 8, 12, 24, 48, 72, 96, and 120 h post-drug injection to the sow. The blood sample from each sow (8 mL/sample) was collected via the left or right jugular vein using a 25.4-mm, 16-gauge hypodermic needle (Air-Tite Products, Virginia Beach, Va.) attached to a 12-mL Luer-Lok syringe (TycoHealth Care, Mansfield, Mass.). During blood collection, a pig snare was used for manual restraint of each sow in her crate. The blood samples (2 mL/sample) from the piglets were collected from the left or right cranial vena cava using a 3.8-cm, 20-gauge hypodermic needle (TycoHealth Care, Mansfield, Mass.) attached to a 3-mL syringe (TycoHealth Care, Mansfield, Mass.). Physical restraint of the piglet was achieved by placing the animal in a supine position during sample collection. Blood samples were transferred to 6-mL evacuated tubes that contained lithium heparin (Vacuette plasma tubes, Greiner Bio-One, Monroe, N.C.) that were stored on ice for up to 2 h before processing. The blood samples were centrifuged for 10 min at 1,500×g. The plasma was then removed, placed in cryovials, and frozen at −80° C. until analysis.
On Day 0, the pharmacokinetic portion of the study commenced. The test article was administered intramuscularly in the right neck to sows. Blood samples for Firocoxib determination were collected by jugular venipuncture from sows and 3 piglets/litter (2 male and one female at each timepoint) at 0, 2, 4, 6, 8, 12, 24, 48, 72, 96 and 120 hours after drug injection in the sow.
Plasma concentrations of firocoxib were determined using high-pressure liquid chromatography (Agilent 1100 Pump, Column Compartment and Autosampler, Agilent Technologies, Santa Clara, Calif., USA) with mass spectrometry detection (LTQ Ion Trap, Thermo Scientific, San Jose, Calif., USA). Briefly, frozen samples or standards were thawed at room temperature and rigorously vortexed once completely thawed. […] Plasma samples, plasma spikes, plasma quality control samples, and blanks (100 μL) were then protein-precipitated in 1.5-mL microcentrifuge tubes with 400 μL acetonitrile/0.1% formic acid. A d6-firocoxib internal standard was incorporated into the acetonitrile precipitating agent at a concentration of 200 ng/mL. The samples were vortexed for 5 seconds after addition of the acetonitrile and centrifuged for 20 min at 3,773×g to sediment the protein pellet. Following centrifugation, the supernatant was poured into cell culture tubes and evaporated to dryness in a Turbovap concentration evaporator at 48° C. The tube contents were reconstituted with 150 μL 25% acetonitrile and transferred to autosampler vials equipped with 300-μL glass inserts. The samples were centrifuged at 770×g before liquid chromatography-mass spectroscopy (LC-MS) analysis.
Twelve calibration spikes were prepared in blank porcine plasma in the concentration range of 1-5,000 ng/mL for the samples from the sows. The samples from the piglets were analyzed using a narrower range of calibration spikes of 1-500 ng/mL. A linear (1/X) fit was used for the piglet plasma samples and the narrower 1-500 ng/mL concentration range. A quadratic (1/X) fit was used for the sow plasma samples and the 1-5,000 ng/mL concentration range.
Plasma and tissue firocoxib concentrations were determined using high-pressure liquid chromatography (Agilent 1100 Pump, Column Compartment and Autosampler, Agilent Technologies, Santa Clara, Calif.) with mass spectrometry detection (LTQ Ion Trap, Thermo Scientific, San Jose, Calif.). A 25-μL injection volume was used for the LC-MS analysis. The mobile phases were A (0.1% formic acid in water) and B (0.1% formic acid in acetonitrile), at flow rates of 0.275 mL/min. […]

CC1(C)OC(=O)C(OCC2CC2)=C1c1ccc(S(C)(=O)=O)cc1 [firocoxib]
AUC(0-inf) (both sexes, pig, 0.5 mg/kg): 690 ng·h/mL
AUC(0-t) (both sexes, pig, 0.5 mg/kg, Piglet AUClast): 635 ng·h/mL
AUC(0-inf) (both sexes, pig, 1 mg/kg): 3180 ng·h/mL
AUC(0-t) (both sexes, pig, 1 mg/kg, Piglet AUClast): 2470 ng·h/mL
AUC(0-inf) (both sexes, pig, 1.5 mg/kg): 4620 ng·h/mL
AUC(0-t) (both sexes, pig, 1.5 mg/kg, Piglet AUClast): 3900 ng·h/mL
AUC(0-inf) (both sexes, pig, 2 mg/kg): 3650 ng·h/mL
AUC(0-t) (both sexes, pig, 2 mg/kg, Piglet AUClast): 3220 ng·h/mL
half-life (both sexes, pig, im): 30.9 to 48.7 h
AUC(0-inf) (both sexes, pig, im, 0.5 mg/kg): 690 ng·h/mL
Cmax (both sexes, pig, im, 0.5 mg/kg): 9.53 ng/mL
Tmax (both sexes, pig, im, 0.5 mg/kg): 24 h
AUC(0-t) (both sexes, pig, im, 0.5 mg/kg, AUC 0-24 h): 176 ng·h/mL
AUC(0-t) (both sexes, pig, im, 0.5 mg/kg, AUC0-24h): 176 ng·h/mL
AUC(0-t) (both sexes, pig, im, 0.5 mg/kg, AUC0-last): 635 ng·h/mL
AUC(0-t) (both sexes, pig, im, 0.5 mg/kg, AUClast): 635 ng·h/mL
MRT last (both sexes, pig, im, 0.5 mg/kg, MRT0-last): 44.8 h
MRT last (both sexes, pig, im, 0.5 mg/kg, MRT last): 44.8 h
AUC(0-inf) (both sexes, pig, im, 1 mg/kg): 3180 ng·h/mL
Cmax (both sexes, pig, im, 1 mg/kg): 31 ng/mL
Tmax (both sexes, pig, im, 1 mg/kg): 24 h
AUC(0-t) (both sexes, pig, im, 1 mg/kg, AUC 0-24 h): 407 ng·h/mL
AUC(0-t) (both sexes, pig, im, 1 mg/kg, AUC0-24h): 407 ng·h/mL
AUC(0-t) (both sexes, pig, im, 1 mg/kg, AUC0-last): 2470 ng·h/mL
AUC(0-t) (both sexes, pig, im, 1 mg/kg, AUClast): 2470 ng·h/mL
MRT last (both sexes, pig, im, 1 mg/kg, MRT0-last): 55.4 h
MRT last (both sexes, pig, im, 1 mg/kg, MRT last): 55.4 h
AUC(0-inf) (both sexes, pig, im, 1.5 mg/kg): 4620 ng·h/mL
Cmax (both sexes, pig, im, 1.5 mg/kg): 53.3 ng/mL
Tmax (both sexes, pig, im, 1.5 mg/kg): 24 h
AUC(0-t) (both sexes, pig, im, 1.5 mg/kg, AUC 0-24 h): 662 ng·h/mL
AUC(0-t) (both sexes, pig, im, 1.5 mg/kg, AUC0-24h): 662 ng·h/mL
AUC(0-t) (both sexes, pig, im, 1.5 mg/kg, AUC0-last): 3900 ng·h/mL
AUC(0-t) (both sexes, pig, im, 1.5 mg/kg, AUClast): 3900 ng·h/mL
MRT last (both sexes, pig, im, 1.5 mg/kg, MRT0-last): 54.4 h
MRT last (both sexes, pig, im, 1.5 mg/kg, MRT last): 52.4 h
AUC(0-inf) (both sexes, pig, im, 2 mg/kg): 3650 ng·h/mL
Cmax (both sexes, pig, im, 2 mg/kg): 44 ng/mL
Tmax (both sexes, pig, im, 2 mg/kg): 24 h
AUC(0-t) (both sexes, pig, im, 2 mg/kg, AUC 0-24 h): 609 ng·h/mL
AUC(0-t) (both sexes, pig, im, 2 mg/kg, AUC0-24h): 609 ng·h/mL
AUC(0-t) (both sexes, pig, im, 2 mg/kg, AUC0-last): 3220 ng·h/mL
AUC(0-t) (both sexes, pig, im, 2 mg/kg, AUClast): 3220 ng·h/mL
MRT last (both sexes, pig, im, 2 mg/kg, MRT0-last): 51.5 h
MRT last (both sexes, pig, im, 2 mg/kg, MRT last): 51.5 h
AUMC (pig, 0.5 mg/kg): 28433.00 h^2 × ng/mL
AUMClast (pig, 0.5 mg/kg): 28,443.00 h * h * ng/mL
AUMC (pig, 1 mg/kg): 136805.00 h^2 × ng/mL
AUMClast (pig, 1 mg/kg): 136,805.00 h * h * ng/mL
AUMC (pig, 1.5 mg/kg): 204246.00 h^2 × ng/mL
AUMClast (pig, 1.5 mg/kg): 204,246.00 h * h * ng/mL
AUMC (pig, 2 mg/kg): 166016.00 h^2 × ng/mL
AUMClast (pig, 2 mg/kg): 166,016.00 h * h * ng/mL
AUCINF (pig, im, 0.5 mg/kg): 690.47 ng·h/mL
AUC_Exp (pig, im, 0.5 mg/kg): 0.08%
AUC∞ extrpl (pig, im, 0.5 mg/kg): 0.08%
AUCINF (pig, im, 1 mg/kg): 3178.00 ng·h/mL
AUC_Exp (pig, im, 1 mg/kg): 0.22%
AUC∞ extrpl (pig, im, 1 mg/kg): 0.22%
AUCINF (pig, im, 1.5 mg/kg): 4615.17 ng·h/mL
AUC_Exp (pig, im, 1.5 mg/kg): 0.16%
AUC∞ extrpl (pig, im, 1.5 mg/kg): 0.16%
AUCINF (pig, im, 2 mg/kg): 3652.32 ng·h/mL
AUC_Exp (pig, im, 2 mg/kg): 0.12%
AUC∞ extrpl (pig, im, 2 mg/kg): 0.12%
Lamda_HL (0.5 mg/kg): 30.86 h
Lamda_Z (0.5 mg/kg): 0.02 h⁻¹
λZ (0.5 mg/kg): 0.02 h⁻¹
Lamda_HL (1 mg/kg): 48.71 h
Lamda_Z (1 mg/kg): 0.01 h⁻¹
λZ (1 mg/kg): 0.01 h⁻¹
Lamda_HL (1.5 mg/kg): 37.91 h
Lamda_Z (1.5 mg/kg): 0.02 h⁻¹
λZ (1.5 mg/kg): 0.05 h⁻¹
Lamda_HL (2 mg/kg): 32.42 h
Lamda_Z (2 mg/kg): 0.02 h⁻¹
λZ (2 mg/kg): 0.02 h⁻¹
T1/2λZ (im, 0.5 mg/kg): 30.86 h
T1/2λZ (im, 1 mg/kg): 48.71 h
T1/2λZ (im, 1.5 mg/kg): 37.91 h
T1/2λZ (im, 2 mg/kg): 32.42 h

Source: US10434083B2, “Transmammary delivery of cyclooxygenase-2 inhibitors for analgesia in neonates” (Iowa State University Research Foundation, Inc., priority 2018, dated 2019)
